Experimental data from article PMC4884932, “Selective brain penetrable Nurr1 transactivator for treating Parkinson's disease” (Oncotarget, 2016).
Read-outs that look alike come from different tables or passages of the source.

What was measured:
[1] = biological target: T1, Nurr1 (Homo sapiens, UniProt P43354); test: Nurr1 transactivation assay in COS7 cells without RXRα; format: cell-based; settings: Nurr1 in the absence of RXRα
T1 construct: full length Nurr1 with or without full-length RXRα plasmid; expressed in transfected cells; host or cells: COS7
T1 sequence (P43354 whole entry, species assumed): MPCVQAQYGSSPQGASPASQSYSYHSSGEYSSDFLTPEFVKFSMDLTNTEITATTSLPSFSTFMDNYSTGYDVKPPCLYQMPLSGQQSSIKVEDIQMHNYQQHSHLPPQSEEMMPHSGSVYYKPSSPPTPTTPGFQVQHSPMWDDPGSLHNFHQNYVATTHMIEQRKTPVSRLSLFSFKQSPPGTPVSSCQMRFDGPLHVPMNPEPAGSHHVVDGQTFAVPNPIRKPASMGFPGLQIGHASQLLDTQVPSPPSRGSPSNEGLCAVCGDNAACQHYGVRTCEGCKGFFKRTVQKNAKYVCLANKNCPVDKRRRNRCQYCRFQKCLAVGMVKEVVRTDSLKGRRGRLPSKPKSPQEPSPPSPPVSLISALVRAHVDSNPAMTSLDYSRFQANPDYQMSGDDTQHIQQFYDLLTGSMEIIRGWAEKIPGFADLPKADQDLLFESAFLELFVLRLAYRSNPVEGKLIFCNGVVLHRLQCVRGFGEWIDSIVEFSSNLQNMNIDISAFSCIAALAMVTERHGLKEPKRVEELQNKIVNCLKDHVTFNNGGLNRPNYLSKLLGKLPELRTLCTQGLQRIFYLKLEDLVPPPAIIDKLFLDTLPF
Description: For RXR: CV-1 cells were transfected with rCRBPII/RXRE-tk-Luc reporter gene and an expression vector for RXRα, β, or γ. For RAR: CV-1 cells were transfected with ERE-tk-Luc reporter gene and an expression vector for the appropriate ER-RARα, β, or γ. ER-RARs are fusion proteins, composed of the estrogen receptor (ER) DNA binding domain fused to the ligand binding domain of RARs. This system eliminates interference by the low level of endogenous RAR activity in CV1 cells as the readout comes only from the transfected ER-RAR. For PPARγ: CV-1 cells were transfected with 3x(rAOX/DR1)-tk-Luc reporter gene and an expression vector for PPARγ; for FXR: CV-1 cells were transfected with 3x(IBABP/IR1)-tk-Luc reporter gene and vectors for FXR and RXRα; for LXR: CV-1 cells were transfected with 3x(PLTP/LXRE)-tk-Luc reporter gene with vectors for LXRα or LXRβ. For Nurr1: COS7 cells were transfected with 3xNBRE-tk-luc reporter gene and full length Nurr1 with or without full-length RXRα plasmid. […] Luciferase data were normalized to co-transfected β-gal activity. Luciferase activity is expressed as percent of maximal activity obtained using specific agonists 9-cis-retinoic acid (RXR), retinoic acid (RAR), rosiglitazone (PPARγ), GW4064 (FXR), T0901317 (LXR).

[2] = Plasma pharmacokinetics after oral gavage; format: in vivo; settings: SD, rat
Procedure: […] Rats were treated with the designated dose by daily gavage. Acute plasma PK was conducted on day one and acute-on-chronic plasma PK was conducted on day 24. Pharmacokinetic assessment was conducted by collecting of blood at baseline (prior gavage), 0.25, 0.5, 1, 2, 4, 8, 12 and 24h post gavage. […] The spiked plasma was dialyzed at 37°C against an isotonic sodium phosphate buffer to achieve equilibrium. At the end of dialysis, the plasma and buffer level of IRX4204 were quantified by LC/MS/MS.
The LC/MS system was comprised of Waters Acquity Ultra Performance Liquid Chromatography (UPLC) coupled to a XEVO-TQS (Waters). The samples were analyzed by reverse-phase HPLC using a Waters Atlantis T3 column (150 × 2.1mm, 5um). The mobile phase was nebulized using heated nitrogen in a Z-spray source/interface set to electrospray negative ionization mode. The ionized compounds were detected using MS/MS. […] The detection was linear between 2.5nM to 10nM.

[3] = tested on: Nurr1 downstream genes in the SN; test: Expression of Nurr1 downstream genes in the substantia nigra after oral treatment; format: in vivo; settings: rat, 7 days oral 10 mg/kg/day
Procedure: Male SD rats underwent daily gavage with 10mg/kg/day for seven days. One hour after the last dose, rats were anesthetized with ketamine/xylazine and transcardially perfused with cold saline. Brains were isolated and homogenized with two volumes of phosphate buffer using ultrasonication. A 100μl sample of the homogenate was transferred to a 1.7ml centrifuge tube and mixed with 20μl of internal standard (100ng/ml of 13-cis retinoic acid-d5 in diluent). Then the sample was deproteinized with 300μl of acetonitrile, centrifuged, and the supernatant was transferred to an autosampler vial for analysis by LC/MS/MS. The calibration standards and the internal standard (13-cis retinoic acid-d5) were diluted in acetonitrile:butylatedhydroxyanisole:ethoxyquin:triethylamine (100:0.05:0.02:0.1, v/w/v/v).
Total RNA from VMB neurons or rat substantia nigra were isolated using the RNeasy Mini Kit from Qiagen (Valencia, CA) and 1μg of total RNA was reverse transcribed using SuperScript III first-strand synthesis supermix for qRT-PCR from Invitrogen (Carlsbad, CA) according to the manufacturer's instruction. Quantitative RT-PCR was performed using Maxima SYBR Green master mix (Fermentas) in ABI Prism 7900HT in four replicates with primers amplifying the target genes. Expression level of actin was used as an internal control. Data were normalized using the 2^−ΔΔCt method. Levels of target gene mRNAs were expressed relative to those in vehicle control groups and plotted in GraphPad Prism.

[4] = tested on: 6-OHDA lesioned rats; test: Apomorphine-induced rotations in 6-OHDA lesioned rat model of PD; format: in vivo; settings: 10mg/kg/day gavage for three weeks, day 24 post-lesion
Procedure: All surgical procedures were performed under general anesthesia with ketamine/xylazine. 2μl 6-OHDA (20 mg/ml in 0.02% ascorbic acid) was stereotaxically injected into the right striatum of male SD rats. Lesion coordinates were set according to bregma and dura in mm: ML-3.7; AP-1.0; DV-5.5. The injection rate was 2μl/5 min and the injecting needle was left for 2 minutes after injection to avoid back flow. Apomorphine-induced rotations (see below) were assessed three days post-lesion and rats with ≥ 30 full contralateral rotation/30 minutes were included in the study.
Rats were randomly grouped into vehicle control group (n = 11) and drug treatment group (n = 10). […] The control group received DMSO/corn oil (vehicle). The treatment continued for three weeks.
Apomorphine (APO)-induced rotations were performed as described by Fisher et al.. Briefly, immediately after apomorphine injection (0.5 mg/kg body weight), animals were placed in an open area. A camera monitored the animal behavior and computerized software analyzed the number of contralateral and ipsilateral rotations in 30 minutes testing. Rotations were assessed three days post-lesion and after three weeks of treatment (24 days post-lesion). Data were expressed as average contralateral turns per minute.

[5] = female, 1 mg/kg/day, 1mg/kg/day gavage, Week 4
[6] = female, 1 mg/kg/day, Female, 1mg/kg/day gavage, Day 1
[7] = female, 3 mg/kg/day, 3mg/kg/day gavage, Week 4
[8] = female, 3 mg/kg/day, Female, 3mg/kg/day gavage, Day 1
[9] = female, 10 mg/kg/day, 10 mg/kg/day gavage, Week 4
[10] = female, 10 mg/kg/day, Female, 10 mg/kg/day gavage, Day 1
[11] = male, 1 mg/kg/day, 1mg/kg/day gavage, Week 4
[12] = male, 1 mg/kg/day, Male, 1mg/kg/day gavage, Day 1
[13] = male, 3 mg/kg/day, 3mg/kg/day gavage, Week 4
[14] = male, 3 mg/kg/day, Male, 3mg/kg/day gavage, Day 1
[15] = male, 10 mg/kg/day, 10 mg/kg/day gavage, Week 4
[16] = male, 10 mg/kg/day, Male, 10 mg/kg/day gavage, Day 1

In the case of CC(/C=C/[C@@H]1C[C@]1(C)c1ccc2c(c1)C(C)(C)CCC2(C)C)=C\C(=O)O [IRX4204], the reporter gene activation [1] is reported as “base level of reporter gene activation”, the Cmax [2, 5] is reported as 43.4 ng/mL and the Tmax [2, 5] is reported as 15 min. The Cmax [2, 6] was 120 ng/mL, the Tmax [2, 6] was 30 min and the AUC(0-t) ([2]; female, 1 mg/kg/day, Female, 1mg/kg/day gavage, Day 1, read-out: AUC0-24) was 251 ng·h/mL. For the same molecule, the AUC(0-t) ([2]; female, 1 mg/kg/day, Female, 1mg/kg/day gavage, Week 4, read-out: AUC0-24) was 136 ng·h/mL, the Cmax [2, 7] was 101 ng/mL and the Tmax [2, 7] was 60 min. For the same molecule, the Cmax [2, 8] was 362 ng/mL, the Tmax [2, 8] was 30 min and the AUC(0-t) ([2]; female, 3 mg/kg/day, Female, 3mg/kg/day gavage, Day 1, read-out: AUC0-24) was 975 ng·h/mL. The AUC(0-t) ([2]; female, 3 mg/kg/day, Female, 3mg/kg/day gavage, Week 4, read-out: AUC0-24) was 344 ng·h/mL, the Cmax [2, 9] was 667 ng/mL and the Tmax [2, 9] was 15 min. The Cmax [2, 10] was 974 ng/mL, the Tmax [2, 10] was 30 min and the AUC(0-t) ([2]; female, 10 mg/kg/day, Female, 10 mg/kg/day gavage, Day 1, read-out: AUC0-24) was 2440 ng·h/mL. It also gave an AUC(0-t) ([2]; female, 10 mg/kg/day, Female, 10 mg/kg/day gavage, Week 4, read-out: AUC0-24) of 940 ng·h/mL, a Cmax [2, 11] of 25.7 ng/mL and a Tmax [2, 11] of 15 min. The Cmax [2, 12] was 58.9 ng/mL, the Tmax [2, 12] was 30 min and the AUC(0-t) ([2]; male, 1 mg/kg/day, Male, 1mg/kg/day gavage, Day 1, read-out: AUC0-24) was 140 ng·h/mL. For the same molecule, the AUC(0-t) ([2]; male, 1 mg/kg/day, Male, 1mg/kg/day gavage, Week 4, read-out: AUC0-24) was 27.5 ng·h/mL, the Cmax [2, 13] was 54.5 ng/mL and the Tmax [2, 13] was 30 min. The Cmax [2, 14] was 198 ng/mL, the Tmax [2, 14] was 30 min and the AUC(0-t) ([2]; male, 3 mg/kg/day, Male, 3mg/kg/day gavage, Day 1, read-out: AUC0-24) was 484 ng·h/mL. For the same molecule, the AUC(0-t) ([2]; male, 3 mg/kg/day, Male, 3mg/kg/day gavage, Week 4, read-out: AUC0-24) was 280 ng·h/mL, the Cmax [2, 15] was 77.2 ng/mL and the Tmax [2, 15] was 15 min. It also gave a Cmax [2, 16] of 542 ng/mL, a Tmax [2, 16] of 15 min and an AUC(0-t) ([2]; male, 10 mg/kg/day, Male, 10 mg/kg/day gavage, Day 1, read-out: AUC0-24) of 1490 ng·h/mL. For the same molecule, the AUC(0-t) ([2]; male, 10 mg/kg/day, Male, 10 mg/kg/day gavage, Week 4, read-out: AUC0-24) was 422 ng·h/mL, the “DAT mRNA level in the SN” value [3] was “significantly increased” and the “DDC mRNA level in the SN” value [3] was “significantly increased”. The “DJ-1(PARK7) mRNA level in the SN” value [3] was “significantly increased”, the “GRFα1 mRNA level in the SN” value [3] was “significantly increased” and the “Pitx3 mRNA level in the SN” value [3] was “significantly increased”. For the same molecule, the “TH mRNA level in the SN” value [3] was “significantly increased”, the “VMAT-2 (VMAT2) mRNA expression in the SN” value ([3]; did not reach statistical significance) was “trend towards an increase” and the “APO-induced contralateral rotations versus baseline” value [4] was “did not differ significantly from baseline”.
